According to US12083156B1, “Extracts derived from laser-irradiated rhizome of curcuma longa having enhanced antimicrobial activity” (KING FAISAL UNIVERSITY, priority 2023, dated 2024):

Experiments:
Experiment in all cases: Antimicrobial bioassay, inhibition zone
Format in all cases: cell-based
S. aureus = conditions: Staphylococcus aureus; extracts 5 mg/L; Imipenem 10 μg; mean of nine replicate plates
Description: (§1) Each of the mean measurements was obtained from the average of nine replicate plates. The test solution positive control was 10 μg Imipenem. Three Curcuma longa extracts (5 mg/L) were prepared from ethanolic rhizome extracts as well as the control.

MRSA = conditions: Staphylococcus aureus, extracts 5 mg/L, Imipenem 10 μg, mean of nine replicate plates
Description: as §1

Bacillus sp. = conditions: extracts 5 mg/L, Imipenem 10 μg, mean of nine replicate plates
Description: as §1

E. coli = conditions: Escherichia coli; extracts 5 mg/L; Imipenem 10 μg; mean of nine replicate plates
Description: as §1

C[C@@H](O)[C@H]1C(=O)N2C(C(=O)O)=C(SCCN=CN)C[C@H]12 [Imipenem]
zone of inhibition at 10 µg/disc (S. aureus): 18 mm | zone of inhibition at 10 µg/disc (MRSA): 25 mm | zone of inhibition at 10 µg/disc (Bacillus sp.): 19 mm | zone of inhibition at 10 µg/disc (E. coli): 20 mm
